Experimental data published in US9328078B2, “Benzofurazan anti-amyloid compounds and methods” (Treventis Corporation, priority 2012, dated 2016).
Values joined by “and” are separate entries in the source; they are usually repeats but may differ in a detail not shown here. Equal entries are not always repeated.

Biological target: Aβ40 (Homo sapiens, UniProt P05067)
Test: kinetic ThT assay for Aβ aggregation
Format: biochemical
Conditions: for IC50: ThT fluorescence, 20 μM Aβ, 37° C., up to 80 hr, parenthesis = compound 1027 in same experiment, read-out: IC50 A β 1-40; for inhibition at 10 µM: compound 10 μM, read-out: % inhib Aβ 40 10 μM; for inhibition at 5 µM: 80 h, read-out: % inhib Aβ 40 (5 μm); for inhibition at 20 µM: read-out: % inhib. A β 40 (20 μM)
Protocol: Aβ40 (1.0 mg) was pre-treated in a 1.5 mL microfuge tube with HFIP (1 mL) and sonicated for 20 min to disassemble any pre-formed Aβ aggregates. The HFIP was removed with a stream of argon and the Aβ dissolved in Tris base (5.8 mL, 20 mM, pH˜10). The pH was adjusted to 7.4 with concentrated HCl (˜10 μL) and the solution filtered using a syringe filter (0.2 μm) before being used.
The kinetic ThT assay for AP aggregation is similar to that of Chalifour et al (Chalifour et al, 2003, J. Biol. Chem. 278:34874-81). Briefly, pre-treated Aβ40 or Aβ42 (40 μM in 20 mM Tris, pH 7.4) was diluted with an equal volume of 8 μM Thioflavin T (ThT) in Tris (20 mM, pH 7.4, 300 mM NaCl). Aliquots of Aβ/ThT (200 μL) were added to wells of a black polystyrene 96-well plate, followed by 2 μL of a compound in DMSO (variable concentration), or DMSO alone (controls). Incubations were performed in triplicate and were taken to contain 20 μM Aβ, various concentration of compound in 20 mM Tris, pH 7.4, 150 mM NaCl, 1% DMSO. Plates were covered with clear polystyrene lids and incubated at 37° C. in a Tecan Genios microplate reader.
Fluorescence readings (λex=450 nm, λem=480 nm) were taken every 15 min., after first shaking at high intensity for 15 s and allowing to settle for 10 s before each reading. Active compounds attenuated the increase in fluorescence over time that occurred in controls. In FIGS. 1-7, the time this procedure was performed extended to 80 hours (rightmost part of X-axis), at which point fluorescence increase generally reached an asymptote. Applying a definition of DMSO control at 80 hr as 100% aggregation (0% inhibition) and DMSO control at 0 hr as 0% aggregation (100% inhibition), a % inhibition score where higher is better can be calculated for a given concentration of compound. By repeating this procedure over several concentrations, a […] (IC50) can be measured, as is given in the table below for some compounds.
Data is summarized in the table below; numbers given in parenthesis are the values in that particular experiment for compound ID 1027, given as the first entry in this table for comparison.

[1] = DMSO control at 80 hr = 0% inhibition, parenthesis = compound 1027
[2] = compound 5 μm, DMSO control at 80 hr = 0% inhibition, parenthesis = compound 1027
[3] = compound 20 μM, DMSO control at 80 hr = 0% inhibition, parenthesis = compound 1027

Aβ40, sequence (P05067 672-711 limits assumed, species assumed): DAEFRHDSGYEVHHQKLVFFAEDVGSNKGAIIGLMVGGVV

Compound	inhibition at 10 µM [1] [%]	inhibition at 5 µM [2] [%]	inhibition at 20 µM [3] [%]	other results
CC1CCCN1c1cc(-c2cccc(C(O)C(F)(F)F)c2)cc2nonc12 (mixture of isomers) [TRV-1379]	–	–	–	IC50: 1650 nM
CC(O)c1cccc(-c2cc(NCc3ccccc3)c3nonc3c2)c1 (stereo not shown) [TRV-1259]	66.3	–	–	–
CC(O)c1cccc(-c2cc(N3CCCC3)c3nonc3c2)c1 (stereo not shown) [TRV-1310]	81.5	–	–	–
CC(O)c1cccc(-c2cc(N(C)Cc3ccccc3)c3nonc3c2)c1 (stereo not shown) [TRV-1358]	72.7	–	–	–
CC(O)c1cccc(-c2cc(N3CCC[C@H]3CO)c3nonc3c2)c1 (stereo partly shown) [TRV-1359]	75.2	–	–	–
OC(c1cccc(-c2cc(N3CCOCC3)c3nonc3c2)c1)C(F)(F)F (stereo not shown) [TRV-1360]	58.9	–	–	–
OC(c1cccc(-c2cc(N3CCCC3)c3nonc3c2)c1)C(F)(F)F (stereo not shown) [TRV-1361]	88.9	–	–	–
CC(=O)c1cccc(-c2cc(N3CCCC3)c3nonc3c2)c1 [TRV-1362]	41.4	–	–	–
OC(c1ccc(-c2cc(N3CCCC3)c3nonc3c2)s1)C(F)(F)F (stereo not shown) [TRV-1364]	–	–	–	IC50: 1000 nM
OC(c1ccc(-c2cc(N3CCCC3)c3nonc3c2)cc1)C(F)(F)F (stereo not shown) [TRV-1365]	–	–	–	IC50: 920 nM
OC(c1ccccc1-c1cc(N2CCCC2)c2nonc2c1)C(F)(F)F (stereo not shown) [TRV-1366]	–	–	–	IC50: 3030 nM
OC(c1cc(N2CCCC2)c2nonc2c1)C(F)(F)F (stereo not shown) [TRV-1368]	61.4	–	–	–
CN1CCN(c2cc(-c3cccc(C(O)C(F)(F)F)c3)cc3nonc23)CC1 (stereo not shown) [TRV-1376]	–	–	–	IC50: 51700 nM
CC(C)N(C)c1cc(-c2cccc(C(O)C(F)(F)F)c2)cc2nonc12 (stereo not shown) [TRV-1377]	–	–	–	IC50: 1860 nM
CN(Cc1ccccc1)c1cc(-c2cccc(C(O)C(F)(F)F)c2)cc2nonc12 (stereo not shown) [TRV-1378]	–	–	–	IC50: 2380 nM
OC(c1cccc(-c2cc(NCc3ccccc3)c3nonc3c2)c1)C(F)(F)F (stereo not shown) [TRV-1380]	–	57.1	–	–
OC(c1cccc(-c2cc(N3CCCCC3)c3nonc3c2)c1)C(F)(F)F (stereo not shown) [TRV-1381]	–	70.4	–	–
CCN(CC)c1cc(-c2cccc(C(O)C(F)(F)F)c2)cc2nonc12 (stereo not shown) [TRV-1382]	–	60	–	–
COCCN(C)c1cc(-c2cccc(C(O)C(F)(F)F)c2)cc2nonc12 (stereo not shown) [TRV-1383]	–	54.9	–	–
CCN(C)c1cc(-c2cccc(C(O)C(F)(F)F)c2)cc2nonc12 (stereo not shown) [TRV-1384]	–	72.4	–	–
OC(c1cccc(-c2cc(N3CCSCC3)c3nonc3c2)c1)C(F)(F)F (stereo not shown) [TRV-1385]	–	65.6	–	–
CN(Cc1ccc(F)cc1)c1cc(-c2cccc(C(O)C(F)(F)F)c2)cc2nonc12 (stereo not shown) [TRV-1390]	–	51	75	–
CN(Cc1ccccc1)c1cc(C(O)C(F)(F)F)cc2nonc12 (stereo not shown) [TRV-1392]	–	36	69	–
CN(Cc1ccc(F)cc1)c1cc(C(O)C(F)(F)F)cc2nonc12 (stereo not shown) [TRV-1397]	–	38	61	–
CN(Cc1ccc(F)cc1)c1cc(/C=C/C(O)(C(F)(F)F)C(F)(F)F)cc2nonc12 [TRV-1400]	–	48	80	–
OC(c1cccc(-c2cc(N3Cc4ccccc4C3)c3nonc3c2)c1)C(F)(F)F (stereo not shown) [TRV-1401]	–	39	58	–

Compound	inhibition at 10 µM [1] [%]	inhibition at 5 µM [2] [%]	inhibition at 20 µM [3] [%]	other results
COC1CN(c2cc(-c3cccc(C(O)C(F)(F)F)c3)cc3nonc23)C1 (stereo not shown) [TRV-1403]	–	51	81	–
C#CCN(C)c1cc(-c2cccc(C(O)C(F)(F)F)c2)cc2nonc12 (stereo not shown) [TRV-1404]	–	39	69	–
CN(c1cc(-c2cccc(C(O)C(F)(F)F)c2)cc2nonc12)C1CC1 (stereo not shown) [TRV-1405]	–	46	76	–
OC1CN(c2cc(-c3cccc(C(O)C(F)(F)F)c3)cc3nonc23)C1 (stereo not shown) [TRV-1406]	–	53	83	–
CN(Cc1ccc(F)cc1)c1cc(/C=C/CO)cc2nonc12 [TRV-1409]	–	50	69	–
COC1CCN(c2cc(-c3cccc(C(O)C(F)(F)F)c3)cc3nonc23)C1 (stereo not shown) [TRV-1411]	–	56	81	–
CN(Cc1ccccn1)c1cc(-c2cccc(C(O)C(F)(F)F)c2)cc2nonc12 (stereo not shown) [TRV-1412]	–	51	64	–
CN(Cc1cccnc1)c1cc(-c2cccc(C(O)C(F)(F)F)c2)cc2nonc12 (stereo not shown) [TRV-1413]	–	53	61.3	–
COc1ccc(CN(C)c2cc(-c3cccc(C(O)C(F)(F)F)c3)cc3nonc23)cc1 (stereo not shown) [TRV-1414]	–	53	69	–
COc1cc(CN(C)c2cc(-c3cccc(C(O)C(F)(F)F)c3)cc3nonc23)cc(OC)c1 (stereo not shown) [TRV-1415]	–	52	53	–
CN(Cc1ccc(F)cc1)c1cc(C(=O)C(F)(F)F)cc2nonc12 [TRV-1417]	–	52	75	–
CC(=O)c1cc(N(C)Cc2ccc(F)cc2)c2nonc2c1 [TRV-1418]	–	34	55	–
OC1(c2cc(N3Cc4ccccc4C3)c3nonc3c2)COC1 [TRV-1419]	–	48	55	–
OC(c1cc(N2Cc3ccccc3C2)c2nonc2c1)C(F)(F)F (stereo not shown) [TRV-1420]	–	44	48	–
CC(O)/C=C/c1cc(N(C)Cc2ccc(F)cc2)c2nonc2c1 (stereo not shown) [TRV-1427]	41	–	–	–
OCC1CN(c2cc(-c3cccc(C(O)C(F)(F)F)c3)cc3nonc23)C1 (stereo not shown) [TRV-1428]	78	–	–	–
OC(c1cccc(-c2cc(N3CCC3)c3nonc3c2)c1)C(F)(F)F (stereo not shown) [TRV-1432]	51	–	–	–
CC1(O)CN(c2cc(-c3cccc(C(O)C(F)(F)F)c3)cc3nonc23)C1 (stereo not shown) [TRV-1436]	67	48	–	–
CCOC1CN(c2cc(-c3cccc(C(O)C(F)(F)F)c3)cc3nonc23)C1 (stereo not shown) [TRV-1437]	50	44	–	–
O=C(c1cccc(-c2cc(N3CCC3)c3nonc3c2)c1)N1CCNCC1 [TRV-1440]	60	52	–	–
O=C(NC1CC1)c1cccc(-c2cc(N3CCC3)c3nonc3c2)c1 [TRV-1441]	64	47	–	–
O=C(c1cccc(-c2cc(N3CCC3)c3nonc3c2)c1)N1CCOCC1 [TRV-1442]	43	29	–	–
CN(Cc1ccc(F)cc1)c1cc(-c2cccc(C3(O)COC3)c2)cc2nonc12 [TRV-1446]	50	29	–	–
CC(C)OC1CN(c2cc(-c3cccc(C(O)C(F)(F)F)c3)cc3nonc23)C1 (stereo not shown) [TRV-1447]	70	54	–	–
O=C(c1ccccc1)N1CCN(c2ccc([N+](=O)[O-])c(Nc3ccccc3)c2)CC1 [compound 1027, reference compound]	–	33	69	IC50: 10.5 µM (3×) and 14.7 µM and 22.1 µM (3×); % inhib. A β 40 (20 μM) [3]: 52% and 53% and 51%; % inhib Aβ 40 (3 μm) (compound 3 μm, DMSO control at 80 hr = 0% inhibition, parenthesis = compound 1027): 26%; % inhib Aβ 40 (5 μm) [2]: 38% and 33% (3×)
